Consider 1 compound from patent US10259815B2, “Gabaergic ligands and their uses” (UWM Research Foundation, Inc., priority 2015, dated 2019).

The structures appear in SMILES notation.

Data set [1] is described as follows: Pharmacokinetics and brain concentration after 10 mg/kg P.O. dose, rats. The format is in vivo. The procedure: In a 10 mg/kg oral dose in rats, a concentration of 644 ng/g of KRM-II-81 was found unbound in the brain, indicating a great pharmacokinetic-profile.
Although these are different species, the numbers can still be compared.

The nature of data set [2]: Single-dose pharmacokinetics and brain concentrations, IV and IP, rats. It counts as in vivo, Sprague-Dawley rats. The procedure:
The single-dose pharmacokinetics were determined in femoral artery/vein cannulated Sprague-Dawley rats. The rats received a 1 mg/kg intravenous and 10 mg/kg oral gavage dose of compound. Blood samples were collected at 0.08 (IV only), 0.25, 0.5, 1, 2, 4, 8, 12, and 24 hours after initiation of compound administration. Plasma was obtained via centrifugation. Plasma samples were then analyzed by LC-MS, and pharmacokinetic parameters calculated using Watson (version 7.4; Thermo Fisher Scientific). Calculated parameters include clearance (Cl), volume of distribution (Vdss), area-under-the-curve (AUC), half-life (T½), maximum plasma concentration (Cmax), time of maximum concentration (Tmax), and bioavailability (% F).
Male Sprague-Dawley rats were given either a 1 mg/kg […] dose or 10 mg/kg i.p. dose. Plasma concentrations were taken at 0.08, 0.25, 0.5, 1.0, 2, 4, 8, 12, and 24 hours (three rats per time point for each dose).

Another data set concerns Male Sprague-Dawley rats. Briefly: von Frey filament test in spinal nerve ligated (SNL) rats. The format is in vivo. The procedure: FIG. 11 is a graph of time versus withdrawal threshold for KRM-II-81, Gabapentin, and vehicle, showing the effect of KRM-II-81 on antihyperalgesia in the von Frey filament assay. Male Sprague-Dawley rats (n=5) were dosed i.p. either vehicle, KRM-II-81 (30 mg/kg), or gabapentin (50 mg/kg) and tested in the von Frey filament assay after undergoing SNL 90 days prior. Results were analyzed using ANOVA (Dunnett's test: *P<0.05).
The von Frey filament test is used to test for antihyperalgesia, or an increased sensitivity to pain. […] The von Frey filaments are used to apply pressure to the forelimbs of test subjects at set amounts. When pressure becomes too great, the forelimb is withdrawn and the amount of force applied recorded. The spinal nerve ligation induced hyperalgesia, reducing the amount of force a limb can take before being withdrawn.
Test compounds were given to test the effectiveness of combating the hyperalgesic effect of SNL. Male Sprague-Dawley rats went through SNL at least 90 days prior to the von Frey testing. Rats were first tested without given an injection to determine a baseline. Following baseline establishment, rats (n=5 for all groups) were dosed i.p. with vehicle (1% carboxymethyl cellulose), KRM-II-81 (30 mg/kg), or gabapentin (50 mg/kg). Subjects were then tested every hour for four hours to determine the antihyperalgesic effect of the test compounds. For testing, pressure using von Frey filaments was applied to the forelimb of the rat. Pressure was increased until the limb was withdrawn, and the amount of pressure was recorded.

Another data set deals with CYP2D6 (Homo sapiens, UniProt P10635). Briefly: CYP substrate assessment, CYP2D6.
Sequence of CYP2D6 (P10635 whole entry): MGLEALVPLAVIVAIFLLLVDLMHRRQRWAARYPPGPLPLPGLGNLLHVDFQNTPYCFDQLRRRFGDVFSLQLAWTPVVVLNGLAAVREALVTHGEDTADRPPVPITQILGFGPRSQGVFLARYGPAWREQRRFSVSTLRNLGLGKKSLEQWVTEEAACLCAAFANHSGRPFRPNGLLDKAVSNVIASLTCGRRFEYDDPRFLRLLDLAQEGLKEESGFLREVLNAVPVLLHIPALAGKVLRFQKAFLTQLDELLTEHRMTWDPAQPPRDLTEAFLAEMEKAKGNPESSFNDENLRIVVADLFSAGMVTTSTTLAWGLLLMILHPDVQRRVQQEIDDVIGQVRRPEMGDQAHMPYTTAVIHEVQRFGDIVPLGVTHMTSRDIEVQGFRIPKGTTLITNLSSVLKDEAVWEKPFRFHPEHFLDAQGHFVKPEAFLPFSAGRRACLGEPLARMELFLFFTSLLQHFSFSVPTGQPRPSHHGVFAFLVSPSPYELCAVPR

By Tmax is commonly meant the time at which the peak concentration occurs. Take `C#Cc1ccc2c(c1)C(c1ccccn1)=NCc1c(-c3cnco3)ncn1-2` [KRM-II-81, 5-(8-Ethynyl-6-(pyridin-2-yl)-4H-benzo[f]imidazo[1,5-a][1,4]diazepin-3-yl)oxazole]: the “concentration in the blood relative to HZ-166” value in data set [1] (Cmax, 10 mg/kg P.O., KRM-II-81 in rats vs HZ-166 in mice) is on record as approximately 500 times. The Tmax in data set [1] (rat, blood, po, 10 mg/kg P.O., rats) turned out to be 1.3 h. Further, the Cmax in data set [1] (rat, blood, po, 10 mg/kg P.O., rats, read-out: Cmax (highest concentration found in blood)) came out at 1750 ng/mL. The concentration at 1 h in data set [1] (rat, brain (unbound), 10 mg/kg oral dose, one hour after dose, rats stated for KRM-II-81, read-out: brain unbound concentration ([brain]u)) turned out to be 644 ng/g. Besides, the fraction unbound in data set [1] (rat, 10 mg/kg oral dose, brain, read-out: free fraction) came to 0.18. For the same compound, the mean clearance in data set [2] (1 mg/kg IV dose in rat) was 21.7 mL/min/kg. In addition, in data set [2] (10 mg/kg IP dose in rat), the “mean AUC” value stood at 16.5 µM·h, the “mean IP T ½” value was 3.1 h and the mean bioavailability worked out at 69%. This compound also displayed a Cmax in data set [2] (10 mg/kg IP dose in rat, plasma) of 3.09 µM. In data set [2] (Sprague-Dawley, plasma, 1 mg/kg IV dose in rat, read-out: mean T ½ (converted)), the half-life is 1.4 h. Besides, the Vd in data set [2] (Sprague-Dawley, plasma, 1 mg/kg IV dose in rat, read-out: mean Vdss) was determined as 1.4 L/kg. The same compound gave a concentration at 1 h in data set [2] (male, Sprague-Dawley, rat, brain, intraperitoneal, 10 mg/kg IP dose, 1 hour) of 6.63 µM. Further, the concentration at 4 h in data set [2] (male, Sprague-Dawley, rat, brain, intraperitoneal, 10 mg/kg IP dose, 4 hour) is 2.05 µM. In addition, the Kp uu at 1 h in data set [2] (male, Sprague-Dawley, rat, brain/plasma (unbound), 10 mg/kg IP dose, 1 hour) was 0.53. In data set [2] (male, Sprague-Dawley, rat, brain/plasma (unbound), 10 mg/kg IP dose, 4 hour), this compound returned a Kp uu at 4 h of 0.67. The “statistical significance of antihyperalgesic effect” value in the data set with Male Sprague-Dawley rats (KRM-II-81 30 mg/kg at one hour, gabapentin 50 mg/kg) was “able to reach significance”. Further, the “antihyperalgesic activity, von Frey after SNL” value in the data set with Male Sprague-Dawley rats (KRM-II-81 30 mg/kg, gabapentin 50 mg/kg i.p.) is listed as “active as antihyperalgesics”. Further, the “pain threshold (force before removing paw)” value in the data set with Male Sprague-Dawley rats (from 1-2 hours, vehicle ˜5 g) is given as approximately 12 g. In addition, the “substrate of CYP2D6” value on CYP2D6 is recorded as “not found to be a substrate”.
